ChEMBL document CHEMBL5244254, “Potential treatment methods targeting 2019-nCoV infection” (Eur J Med Chem, 2020)
Converted amounts (≈) assume the structure as drawn.

Key:
[1] = Inhibition of Severe acute respiratory syndrome coronavirus 3CL protease; set-up: species or system Severe acute respiratory syndrome-related coronavirus
[2] = Cytotoxicity against African green monkey Vero E6 cells assessed as cell growth inhibition incubated for 48 hrs by CCK8 assay; format: toxicity, cell-based, Vero C1008; settings: chlorocebus sabaeus
Ebolavirus = test: Antiviral activity against Ebolavirus infected in African green monkey Vero E6 cells; format: functional, organism-based; settings: Orthoebolavirus, Vero C1008
[3] = Selectivity ratio of CC50 for African green monkey Vero E6 cells to EC50 for Severe acute respiratory syndrome coronavirus infected in African green monkey Vero E6 cells; format: toxicity, Vero C1008; settings: read-out: Ratio CC50/EC50
[4] = Cytotoxicity against African green monkey Vero E6 cells assessed as cell growth inhibition incubated for 24 hrs by CCK8 assay; format: toxicity, cell-based, Vero C1008; settings: chlorocebus sabaeus
[5] = Selectivity ratio of CC50 for African green monkey Vero E6 cells to EC50 for Severe acute respiratory syndrome coronavirus […]; format: toxicity, Vero C1008; settings: read-out: Ratio CC50/EC50
SARS-CoV [6] = test: Antiviral activity against Severe acute respiratory syndrome coronavirus infected in African green monkey Vero E6 cells; format: functional, organism-based; settings: Severe acute respiratory syndrome-related coronavirus, Vero C1008
SARS-CoV-2 [7] = test: Antiviral activity against Severe acute respiratory syndrome coronavirus 2 infected in African green monkey Vero cells incubated for 24 to 48 hrs; format: functional, organism-based; settings: Severe acute respiratory syndrome coronavirus 2, Vero
SARS-CoV-2 [8] = test: Antiviral activity against Severe acute respiratory syndrome coronavirus 2 incubated for 48 hrs by TCID50 assay; format: functional, organism-based; settings: Severe acute respiratory syndrome coronavirus 2, 48 h
[9] = Cytotoxicity against African green monkey Vero E6 cells assessed as cell growth inhibition incubated for 48 hrs; format: toxicity, cell-based, Vero C1008; settings: chlorocebus sabaeus
SARS-CoV-2 [10] = test: Antiviral activity against Severe acute respiratory syndrome coronavirus 2; format: functional, organism-based
SARS-CoV [11] = test: Antiviral activity against Severe acute respiratory syndrome coronavirus; format: functional, organism-based; settings: Severe acute respiratory syndrome-related coronavirus
[12] = Inhibition of Severe acute respiratory syndrome coronavirus CYP3A4; format: ADME, Severe acute respiratory syndrome-related coronavirus
Zika virus [13] = test: Antiviral activity against Zika virus MR-766 infected in african green monkey Vero cells; format: functional, organism-based; settings: MR-766, Vero
[14] = tested on: Tick-borne encephalitis virus; test: Antiviral activity against Tick-borne encephalitis virus Hypr infected in african green monkey Vero cells; format: functional, organism-based
West Nile virus [15] = test: Antiviral activity against West Nile virus Eg101 infected in african green monkey Vero cells; format: functional, organism-based
Zika virus [16] = test: Antiviral activity against Zika virus Paraiba-01 infected in african green monkey Vero cells; format: functional, organism-based; settings: Paraiba-01, Vero
West Nile virus [17] = test: Antiviral activity against West Nile virus 13-104 infected in african green monkey Vero cells; format: functional, organism-based; settings: 13-104, Vero

## Cc1cc(C(=O)N[C@@H](C)C(=O)N[C@H](C(=O)N[C@@H](CC(C)C)C(=O)N[C@H](/C=C/C(=O)OCc2ccccc2)C[C@@H]2CCNC2=O)C(C)C)no1
[1]
  EC50: 16.8 µM

## NC(=O)c1nc(F)cnc1O
[2]
  CC50 at 48 h: > 400 µM
Ebolavirus
  EC50: 10.5 µg/mL (≈ 66.8 µM)
[3]
  selectivity ratio: > 6.46

## O=C[C@H](C[C@@H]1CCNC1=O)NC(=O)[C@H](Cc1cccc(F)c1)NC(=O)c1cc2ccccc2[nH]1
[4]
  CC50 at 24 h: > 100 µM
[5]
  selectivity ratio: > 139

## O=C[C@H](C[C@@H]1CCNC1=O)NC(=O)[C@H](CC1CCCCC1)NC(=O)c1cc2ccccc2[nH]1
[4]
  CC50 at 24 h: > 100 µM

## CC(C)(C)OC(=O)Nc1cccn([C@@H](CC2CC2)C(=O)N[C@H](CC(=O)NCc2ccccc2)C[C@@H]2CCNC2=O)c1=O
[1]
  EC50: 4 µM

## CCN(CC)CCCC(C)Nc1ccnc2cc(Cl)ccc12 (configuration not stated) [CHLOROQUINE]
[2]
  CC50 at 48 h: > 100 µM
[3]
  selectivity ratio: > 88.5
SARS-CoV [6]
  EC50: 1.13 µM

## CCN(CCO)CCCC(C)Nc1ccnc2cc(Cl)ccc12 (configuration not stated) [HYDROXYCHLOROQUINE]
SARS-CoV-2 [7]
  EC50: 0.72 µM

## Cc1cccc(C)c1OCC(=O)N[C@@H](Cc1ccccc1)[C@@H](O)C[C@H](Cc1ccccc1)NC(=O)[C@H](C(C)C)N1CCCNC1=O [LOPINAVIR]
SARS-CoV-2 [8]
  EC50: 26.1 µM

## CCOC(=O)C1=C[C@@H](OC(CC)CC)[C@H](NC(C)=O)[C@@H](N)C1 [OSELTAMIVIR]
[9]
  CC50 at 48 h: > 100 µM
SARS-CoV-2 [10]
  EC50: > 100 µM

## NC(=O)c1ncn([C@@H]2O[C@H](CO)[C@@H](O)[C@H]2O)n1 [RIBAVIRIN]
SARS-CoV [11]
  EC50: > 100 µM

## CC(C)c1nc(CN(C)C(=O)N[C@H](C(=O)N[C@@H](Cc2ccccc2)C[C@H](O)[C@H](Cc2ccccc2)NC(=O)OCc2cncs2)C(C)C)cs1 [RITONAVIR]
[12]
  EC50: > 100 µM

## CCOC(=O)c1c(CSc2ccccc2)n(C)c2cc(Br)c(O)c(CN(C)C)c12 [UMIFENOVIR]
Zika virus [13]
  EC50: 10.6 µM
[14]
  EC50: 10.6 µM
West Nile virus [15]
  EC50: 10.6 µM
Zika virus [16]
  EC50: 10.6 µM
West Nile virus [17]
  EC50: 10.6 µM
